Laboratory results taken from ChEMBL document CHEMBL1201862, “PubChem BioAssay data set” (2004).
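Interpolation was linear, between the two tested concentrations surrounding the appropriate level; five concentrations were tested over 48 hours in 96-well plates. GI50 is the concentration that inhibits growth by half.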 The source made the active and inactive calls. No stated cut-off is given here; in the data, active = GI50 up to about 1.1 µM and inactive = higher.

Experiments:
Assay in all cases: growth of human tumour cells (NCI), 48 h
[1] = tested on: UACC-62
[2] = tested on: SF-268
[3] = tested on: DU-145
[4] = tested on: 786-0
[5] = tested on: COLO 205
[6] = tested on: RXF 393
[7] = tested on: UO-31
[8] = tested on: UACC-257
[9] = tested on: MDA-MB-231
[10] = tested on: ACHN
[11] = tested on: NCI-H460
[12] = tested on: BT-549
[13] = tested on: CAKI-1
[14] = tested on: HT-29
[15] = tested on: SK-MEL-5
[16] = tested on: K562
[17] = tested on: SNB-19
[18] = tested on: MDA-N
[19] = tested on: A549
[20] = tested on: PC-3
[21] = tested on: SNB-75
[22] = tested on: OVCAR-3
[23] = tested on: T47D
[24] = tested on: NCI-H226
[25] = tested on: LOX IMVI
[26] = tested on: HCT-116
[27] = tested on: SF-539
[28] = tested on: HOP-62
[29] = tested on: EKVX
[30] = tested on: MCF7
[31] = tested on: HCC 2998
[32] = tested on: TK-10
[33] = tested on: NCI-H522
[34] = tested on: KM12
[35] = tested on: RPMI-8226
[36] = tested on: IGROV-1
[37] = tested on: OVCAR-4
[38] = tested on: SR
[39] = tested on: M14
[40] = tested on: U-251
[41] = tested on: CCRF-CEM
[42] = tested on: OVCAR-8
[43] = tested on: MDA-MB-435
[44] = tested on: SK-MEL-2
[45] = tested on: HL-60
[46] = tested on: NCI/ADR-RES
[47] = tested on: MOLT-4
[48] = tested on: Malme-3M
[49] = tested on: SW-620
[50] = tested on: SK-OV-3
[51] = tested on: SN12C
[52] = tested on: HCT-15
[53] = tested on: Hs-578T
[54] = tested on: SF-295
[55] = tested on: OVCAR-5
[56] = tested on: NCI-H23
[57] = tested on: SK-MEL-28

## COc1cc2c(cc1Cl)[n+]([O-])c(C#N)c(N1CCN(c3ccc([N+](=O)[O-])cc3)CC1)[n+]2[O-]
[1]
  GI50: 11.6 µM (inactive)
[2]
  GI50: 13.1 µM (inactive)
[3]
  GI50: 13.8 µM (inactive)
[4]
  GI50: 12.7 µM (inactive)
[5]
  GI50: 34.4 µM (inactive)
[6]
  GI50: 27 µM (inactive)
[7]
  GI50: 0.938 µM (active)
[8]
  GI50: 14.8 µM (inactive)
[9]
  GI50: 41.8 µM (inactive)
[10]
  GI50: 14.7 µM (inactive)
[11]
  GI50: 7.78 µM (inactive)
[12]
  GI50: 15 µM (inactive)
[13]
  GI50: 48.5 µM (inactive)
[14]
  GI50: 36.9 µM (inactive)
[15]
  GI50: 16.6 µM (inactive)
[16]
  GI50: 9.29 µM (inactive)
[17]
  GI50: 32 µM (inactive)
[18]
  GI50: 24 µM (inactive)
[19]
  GI50: 11.6 µM (inactive)
[20]
  GI50: 17.9 µM (inactive)
[21]
  GI50: 17.4 µM (inactive)
[22]
  GI50: 52.6 µM (inactive)
[23]
  GI50: 3.48 µM (inactive)
[24]
  GI50: > 100 µM (inactive)
[25]
  GI50: 4.68 µM (inactive)
[26]
  GI50: 24 µM (inactive)
[27]
  GI50: 10.8 µM (inactive)
[28]
  GI50: 8.34 µM (inactive)
[29]
  GI50: 28.6 µM (inactive)
[30]
  GI50: 6 µM (inactive)
[31]
  GI50: 19.1 µM (inactive)
[32]
  GI50: 27.3 µM (inactive)
[33]
  GI50: 5.7 µM (inactive)
[34]
  GI50: 21.9 µM (inactive)
[35]
  GI50: 0.631 µM (active)
[36]
  GI50: 2.17 µM (inactive)
[37]
  GI50: 30 µM (inactive)
[38]
  GI50: 2.86 µM (inactive)
[39]
  GI50: 17.5 µM (inactive)
[40]
  GI50: 7.78 µM (inactive)
[41]
  GI50: 8.73 µM (inactive)
[42]
  GI50: 7.28 µM (inactive)
[43]
  GI50: 19.5 µM (inactive)
[44]
  GI50: 49.3 µM (inactive)
[45]
  GI50: 51.2 µM (inactive)
[46]
  GI50: 15.5 µM (inactive)
[47]
  GI50: 5 µM (inactive)
[48]
  GI50: 14.8 µM (inactive)
[49]
  GI50: 22.5 µM (inactive)
[50]
  GI50: 23.9 µM (inactive)
[51]
  GI50: 32.6 µM (inactive)
[52]
  GI50: 11.1 µM
[53]
  GI50: 10.3 µM (inactive)
[54]
  GI50: 12.4 µM (inactive)
[55]
  GI50: 67.8 µM (inactive)
[56]
  GI50: 17.1 µM (inactive)
[57]
  GI50: 34.8 µM (inactive)
